15 compounds from EP0034481A1, “2-Methyl-5-thiazole-methylamine and carboxamide derivatives” (Grigg, Ronald Ernest, priority 1980, dated 1981) can be followed below.

The nature of series [1]: Solubility in solvents (qualitative). It counts as physicochemical.
A further series deals with Diazepam cell receptor. The experiment in a line: Central nervous system activity: adhesion to specific cell receptor surfaces (diazepam cell receptor). It counts as binding. The method, then: Various compounds of this invention have been tested for their biological activity. Peripheral activity was determined by contraction of the guinea pig ileum/frog rectus while central nervous system activity was determined by adhesion to specific cell receptor surfaces.

The next series is described as follows: LD50 (acute toxicity). Conditions: in vivo.
For the next series, the system named is guinea pig ileum. The experiment in a line: Peripheral activity: contraction of the guinea pig ileum, relative to nicotine. It counts as cell-based. On the procedure: Peripheral activity was determined by contraction of the guinea pig ileum/frog rectus while central nervous system activity was determined by adhesion to specific cell receptor surfaces.

In general, LD50 refers to the dose expected to kill half of the subjects tested. A lower LD50 goes with a more toxic substance.

On to `CCN(CC)C(=O)c1cnc(C)s1` [Example 6, N,N-diethyl 2-methyl-5-thiazolecarboxamide], for which, in series [1], the soluble in ethanol result was “soluble” and the soluble in water result is “soluble”. In the series on Diazepam cell receptor, the “Diazepam cell receptor adhesion” value is listed as 3.2 mM.
On to `Cc1ncc(C(=O)N2CCCCC2)s1` [Example 2, 2-methyl-5-(piperidincrcarbonyl)thiazole], for which, in series [1], the soluble in ethanol entry is given as “soluble” and the soluble in water entry is given as “soluble”. Also, the “Diazepam cell receptor adhesion” value in the series with Diazepam cell receptor came out at 0.49 mM.
On to `Cc1ncc(C(=O)N2CCCC2)s1` [Example 1, 2-Methyl-5-(pyrrolidinocarbonyl)thiazole], for which, in series [1], the soluble in ethanol result is on record as “soluble” and the soluble in water result is listed as “soluble”. The “Diazepam cell receptor adhesion” value with Diazepam cell receptor is 0.55 mM.
For the compound `Cc1ncc(C(=O)N2CCOCC2)s1` [Example 3, 2-methyl-S-(morpholinocarbonyl)thiazole], in series [1], the “soluble in dilute hydrochloric acid” value is given as “soluble”, the soluble in ethanol result was “soluble” and the soluble in water entry is given as “soluble”. The “Diazepam cell receptor adhesion” value in the series with Diazepam cell receptor is 1.0 mM.
As for `Cc1nnc(C(=O)N2CCCCC2)o1` [Example 11, 2-methyl-5-(piperidinocarbonyl)oxadiazole], in series [1], the soluble in water entry was “soluble”.
Still for that read-out and setting: for `Cc1nnc(C(=O)N2CCOCC2)o1` [Example 13, 5-methyl-2-(morpholinocarbonyl)oxadiazole] the value was “soluble”.
With `Cc1ncc(C(=O)N2CCN(C(=O)c3cnc(C)s3)CC2)s1` [Example 5, N,N'-bis(2-methyl-5-thiazolecarbonyl)piperazine], the soluble in chloroform entry in series [1] (chloroform) is on record as “soluble”. In series [1] (polyethylene glycol), the “soluble in polyethylene glycol” value is “soluble”.
On to `Cc1ncc(CN2CCOCC2)s1` [Example 20, 2-methyl-5-(morpholinomethyl)thiazole], for which, in series [1], the “soluble in dilute hydrochloric acid” value is “soluble”, the soluble in ethanol entry was “soluble” and the soluble in water result is listed as “soluble”. In addition, in the series on Diazepam cell receptor, the “Diazepam cell receptor adhesion” value came to 11 mM.
As for `c1ccc(-c2ncc(CN3CCCCC3)s2)cc1` [Example 24, 2-phenyl-(5-piperidinomethyl)thiazole], in series [1], the “soluble in dilute hydrochloric acid” value is listed as “soluble” and the soluble in ethanol entry is on record as “soluble”.
As to `Cc1ncc(CN2CCCC2)s1` [Example 18, 2-methyl-5-(pyrrolidinomethyl)thiazole], in “LD50 (acute toxicity)”, the LD50 lay in the range of 7 to 8 mg/kg. For the same compound, in series [1], the soluble in ethanol result is reported as “soluble” and the soluble in water result was “soluble”. For the same compound, the “Diazepam cell receptor adhesion” value in the series with Diazepam cell receptor came to 4.4 mM.
As to `Cc1nnc(C(=O)N2CCCC2)o1` [Example 12, 5-methyl-2-(pyrrolidinocarbonyl)oxadiazole], the soluble in water result in series [1] is recorded as “soluble”.
Take `CCN(CC)Cc1cnc(C)s1` [Example 21, 2-methyl-5-(diethylaminomethyl)thiazole]: the LD50 in “LD50 (acute toxicity)” lay within 80 to 100 mg/kg. In series [1], the soluble in ethanol entry is given as “soluble” and the soluble in water entry is reported as “soluble”. In addition, the “Diazepam cell receptor adhesion” value with Diazepam cell receptor is 5.5 mM.
Turning to `c1ccc(-c2ncc(CN3CCCC3)s2)cc1` [Example 17, 2-phenyl-5-(pyrroli-dinomethyl)thiazole], in series [1], the “soluble in dilute hydrochloric acid” value is reported as “soluble” and the soluble in ethanol entry is “soluble”.
`Cc1ncc(C(=O)NC23CC4CC(CC(C4)C2)C3)s1` [Example 7, N-adamantyl 2-methyl-5-thiazolecarboxamide]: the “Guinea Pig ileum test (% wrt nicotine)” value in the series on guinea pig ileum is on record as 0 % wrt nicotine. In addition, in series [1], the “soluble in dilute hydrochloric acid” value was “soluble”, the soluble in ethanol result is given as “soluble” and the soluble in water entry is recorded as “soluble”.
In “LD50 (acute toxicity)”, `Cc1ncc(CN2CCCCC2)s1` [Example 19, 2-methyl-S-(piperidinomethyl)thiazole] gave a 50% lethal dose (LD50) of 7 to 8 mg/kg. Further, in series [1], the soluble in ethanol entry is listed as “soluble” and the soluble in water result is “soluble”. Moreover, the “Diazepam cell receptor adhesion” value with Diazepam cell receptor turned out to be 1.0 mM.
